The data set deals with ATP-dependent translocase ABCB1 (Homo sapiens, UniProt P08183). As to the kind of experiment: TP_TRANSPORTER: transepithelial transport of tacrolimus (basal to apical) (Tacrolimus: 6.2 uM) in MDR1-expressing LLC-PK1 cells. The data set is classed as functional, cell-based. The note with it: pig, llc-pk1, 6.2 µM.

Drawing on ChEMBL document CHEMBL2074180, “Human P-glycoprotein transports cyclosporin A and FK506” (J Biol Chem, 1993), this text covers Activity for 1 compound.

Chain of ATP-dependent translocase ABCB1 (P08183 whole entry): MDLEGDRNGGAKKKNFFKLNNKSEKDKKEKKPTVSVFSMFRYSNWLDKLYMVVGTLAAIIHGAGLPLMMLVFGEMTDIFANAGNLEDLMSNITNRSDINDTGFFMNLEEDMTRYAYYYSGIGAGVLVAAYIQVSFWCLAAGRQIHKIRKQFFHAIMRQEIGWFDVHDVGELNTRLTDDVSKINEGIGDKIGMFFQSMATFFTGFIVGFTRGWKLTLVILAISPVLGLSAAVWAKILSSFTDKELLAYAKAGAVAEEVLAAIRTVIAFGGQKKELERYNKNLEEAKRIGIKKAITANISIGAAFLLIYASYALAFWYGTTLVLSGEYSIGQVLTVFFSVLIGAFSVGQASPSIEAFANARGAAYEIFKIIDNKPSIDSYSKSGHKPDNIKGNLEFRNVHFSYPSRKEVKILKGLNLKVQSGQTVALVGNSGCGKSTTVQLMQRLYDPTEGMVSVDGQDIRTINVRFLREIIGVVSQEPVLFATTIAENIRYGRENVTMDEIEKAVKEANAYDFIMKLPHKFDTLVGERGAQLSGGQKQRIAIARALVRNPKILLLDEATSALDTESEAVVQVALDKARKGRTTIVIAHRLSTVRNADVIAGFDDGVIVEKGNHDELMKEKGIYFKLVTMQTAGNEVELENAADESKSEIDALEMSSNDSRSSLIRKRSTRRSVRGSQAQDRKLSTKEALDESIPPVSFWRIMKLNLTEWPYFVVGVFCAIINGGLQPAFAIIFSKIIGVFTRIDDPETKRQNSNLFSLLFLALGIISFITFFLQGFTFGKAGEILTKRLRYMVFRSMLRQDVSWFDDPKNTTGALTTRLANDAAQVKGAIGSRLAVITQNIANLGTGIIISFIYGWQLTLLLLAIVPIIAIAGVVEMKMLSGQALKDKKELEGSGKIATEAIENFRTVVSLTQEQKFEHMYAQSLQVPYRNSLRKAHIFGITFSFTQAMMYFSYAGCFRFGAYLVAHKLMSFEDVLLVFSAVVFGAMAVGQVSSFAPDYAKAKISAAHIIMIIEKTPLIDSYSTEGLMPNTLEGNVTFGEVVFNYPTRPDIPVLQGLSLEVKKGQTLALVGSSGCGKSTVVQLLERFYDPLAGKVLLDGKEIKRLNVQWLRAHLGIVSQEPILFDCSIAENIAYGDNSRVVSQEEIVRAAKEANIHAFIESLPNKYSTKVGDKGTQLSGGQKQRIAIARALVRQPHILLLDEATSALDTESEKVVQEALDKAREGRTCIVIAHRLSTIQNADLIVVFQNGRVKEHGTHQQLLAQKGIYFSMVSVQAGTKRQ

`C=CC[C@@H]1/C=C(\C)C[C@H](C)C[C@H](OC)[C@H]2O[C@@](O)(C(=O)C(=O)N3CCCC[C@H]3C(=O)O[C@H](/C(C)=C/[C@@H]3CC[C@@H](O)[C@H](OC)C3)[C@H](C)[C@@H](O)CC1=O)[C@H](C)C[C@@H]2OC` [TACROLIMUS ANHYDROUS]: the Activity entry is “inhibitor [+]”.
